From ChEMBL document CHEMBL3865786, “Scaffold-hopping of bioactive flavonoids: Discovery of aryl-pyridopyrimidinones as potent anticancer agents that inhibit catalytic role of topoisomerase IIα” (Eur J Med Chem, 2016)
pIC50: −log10 of the molar value. Active and inactive are the calls of the source. The rule behind the calls is not given here.

Experiments:
[1] = target: DNA topoisomerase 2-alpha (Homo sapiens) (UniProt P11388); assay: Inhibition of human DNA topoisomerase 2alpha-mediated decatenation of kinetoplast DNA at 100 uM after 30 mins by agarose gel electrophoresis
Sequence of DNA topoisomerase 2-alpha (Homo sapiens) (P11388 whole entry): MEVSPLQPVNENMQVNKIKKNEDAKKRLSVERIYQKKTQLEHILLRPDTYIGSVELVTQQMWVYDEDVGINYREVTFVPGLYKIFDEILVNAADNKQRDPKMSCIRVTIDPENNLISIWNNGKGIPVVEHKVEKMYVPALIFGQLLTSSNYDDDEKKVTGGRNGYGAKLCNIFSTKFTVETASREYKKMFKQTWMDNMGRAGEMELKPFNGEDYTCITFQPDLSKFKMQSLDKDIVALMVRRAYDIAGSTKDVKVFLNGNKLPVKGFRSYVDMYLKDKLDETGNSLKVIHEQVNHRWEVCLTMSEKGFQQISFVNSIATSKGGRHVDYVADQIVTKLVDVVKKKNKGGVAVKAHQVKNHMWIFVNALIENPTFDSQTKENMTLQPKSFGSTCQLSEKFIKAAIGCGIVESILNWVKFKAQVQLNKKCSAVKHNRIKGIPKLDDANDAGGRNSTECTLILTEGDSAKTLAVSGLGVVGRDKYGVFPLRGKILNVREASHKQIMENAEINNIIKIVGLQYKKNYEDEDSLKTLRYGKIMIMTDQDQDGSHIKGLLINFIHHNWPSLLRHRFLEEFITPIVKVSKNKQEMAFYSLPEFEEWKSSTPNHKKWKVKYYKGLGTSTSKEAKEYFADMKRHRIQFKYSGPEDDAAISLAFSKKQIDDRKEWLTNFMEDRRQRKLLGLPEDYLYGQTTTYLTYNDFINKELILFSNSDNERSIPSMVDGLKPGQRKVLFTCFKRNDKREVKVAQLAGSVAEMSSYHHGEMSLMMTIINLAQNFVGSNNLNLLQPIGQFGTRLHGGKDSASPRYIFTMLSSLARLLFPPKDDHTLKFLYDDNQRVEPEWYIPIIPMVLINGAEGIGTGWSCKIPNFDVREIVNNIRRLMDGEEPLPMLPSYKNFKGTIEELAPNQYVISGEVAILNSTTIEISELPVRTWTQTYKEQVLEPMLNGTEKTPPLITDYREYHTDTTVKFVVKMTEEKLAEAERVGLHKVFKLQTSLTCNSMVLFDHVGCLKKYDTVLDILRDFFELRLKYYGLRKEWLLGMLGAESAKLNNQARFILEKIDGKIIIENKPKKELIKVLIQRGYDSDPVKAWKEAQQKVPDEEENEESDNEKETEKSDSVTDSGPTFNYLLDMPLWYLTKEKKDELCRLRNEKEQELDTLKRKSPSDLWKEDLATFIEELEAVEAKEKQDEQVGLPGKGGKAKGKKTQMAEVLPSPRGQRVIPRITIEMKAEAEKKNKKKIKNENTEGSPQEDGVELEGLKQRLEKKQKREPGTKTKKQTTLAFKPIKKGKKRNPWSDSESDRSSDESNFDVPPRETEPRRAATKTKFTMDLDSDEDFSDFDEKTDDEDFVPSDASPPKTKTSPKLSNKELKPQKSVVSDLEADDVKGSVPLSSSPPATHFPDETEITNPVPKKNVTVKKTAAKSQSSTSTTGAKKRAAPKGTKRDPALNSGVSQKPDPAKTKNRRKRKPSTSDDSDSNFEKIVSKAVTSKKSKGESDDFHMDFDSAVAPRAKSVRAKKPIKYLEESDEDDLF

[2] = (§1) Cytotoxicity against HEK293 cells assessed as reduction in cell viability after 48 hrs by MTT assay; type: functional; conditions: Homo sapiens, HEK293, 48 h; read-out: LC50 (the source's name)
[3] = Cytotoxicity against African green monkey Vero cells assessed as reduction in cell viability after 48 hrs by MTT assay; type: toxicity, cell-based; conditions: chlorocebus sabaeus; for CC50 at 48 h: Vero cells, read-out: LC50; for Activity: vero, 48 h
[4] = Cytotoxicity against human HeLa cells assessed as reduction in cell viability after 48 hrs by MTT assay; type: functional, cell-based
HEK293 [5] = assay: (§2) Anticlonogenic activity against HEK293 cells assessed as inhibition of colony formation incubated for 48 hrs measured after 6 days by crystal violet staining based assay; type: functional; conditions: Homo sapiens
[6] = as §2; type: functional; conditions: Homo sapiens, read-out: LC50 (the source's name)
HEK293 [7] = assay: as §1; type: functional; conditions: Homo sapiens
[8] = Cytotoxicity against human MCF7 cells assessed as reduction in cell viability after 48 hrs by MTT assay; type: functional, cell-based; conditions: MCF7, 48 h
[9] = Cytotoxicity against human A549 cells assessed as reduction in cell viability after 48 hrs by MTT assay; type: functional, cell-based; conditions: A549, 48 h
[10] = Cytotoxicity against human HCT116 cells assessed as reduction in cell viability after 48 hrs by MTT assay; type: functional, cell-based; conditions: HCT-116, 48 h
HEK293 [11] = assay: Potency index, ratio of etoposide LC50 to compound LC50 for anticlonogenic activity in HEK293 cells; type: functional, Homo sapiens
[12] = Cytotoxicity against human H357 cells assessed as reduction in cell viability after 48 hrs by MTT assay; type: functional, cell-based; conditions: H357, 48 h
[13] = Binding affinity to DNA (unknown origin) assessed as hypochromism after 1 hr by UV-Vis absorption spectrophotometric analysis
HEK293 [14] = assay: Induction of apoptosis in HEK293 cells assessed as apoptotic cells at 1 uM after 48 hrs by Annexin-V/FITC/PI dual staining based flow cytometry (reference value: 0.07 +/- 0.2%); type: functional, Homo sapiens
HEK293 [15] = assay: Induction of apoptosis in HEK293 cells assessed as deformation after 48 hrs by DAPI staining based fluorescence microscopy; type: functional, cell-based; conditions: Homo sapiens
HEK293 [16] = assay: Induction of apoptosis in HEK293 cells assessed as bubble shaped nuclei after 48 hrs by DAPI staining based fluorescence microscopy; type: functional, cell-based; conditions: Homo sapiens
HEK293 [17] = assay: Induction of apoptosis in HEK293 cells assessed as normal cells at 5 uM after 48 hrs by Annexin-V/FITC/PI dual staining based flow cytometry (reference value: 98.2 +/- 1.7%); type: functional, Homo sapiens
HEK293 [18] = assay: Induction of apoptosis in HEK293 cells assessed as apoptotic cells at 2.4 uM after 48 hrs by Annexin-V/FITC/PI dual staining based flow cytometry (reference value: 0.07 +/- 0.2%); type: functional, Homo sapiens
HEK293 [19] = assay: Induction of apoptosis in HEK293 cells assessed as apoptotic cells at 5 uM after 48 hrs by Annexin-V/FITC/PI dual staining based flow cytometry (reference value: 0.07 +/- 0.2%); type: functional, Homo sapiens
HEK293 [20] = assay: Induction of apoptosis in HEK293 cells after 48 hrs by Annexin V-FITC/propidium iodide staining based flow cytometry; type: functional, cell-based; conditions: Homo sapiens
HEK293 [21] = assay: Induction of apoptosis in HEK293 cells assessed as late apoptotic cells at 1 uM after 48 hrs by Annexin-V/FITC/PI dual staining based flow cytometry (reference value: 0.82 +/- 0.5%); type: functional, Homo sapiens
HEK293 [22] = assay: Induction of apoptosis in HEK293 cells assessed as normal cells at 1 uM after 48 hrs by Annexin-V/FITC/PI dual staining based flow cytometry (reference value: 98.2 +/- 1.7%); type: functional, Homo sapiens
HEK293 [23] = assay: Induction of apoptosis in HEK293 cells assessed as early apoptotic cells at 1 uM after 48 hrs by Annexin-V/FITC/PI dual staining based flow cytometry (reference value: 0.19 +/- 1.4%); type: functional, Homo sapiens
HEK293 [24] = assay: Induction of apoptosis in HEK293 cells assessed as normal cells at 2.4 uM after 48 hrs by Annexin-V/FITC/PI dual staining based flow cytometry (reference value: 98.2 +/- 1.7%); type: functional, Homo sapiens
HEK293 [25] = assay: Induction of apoptosis in HEK293 cells assessed as early apoptotic cells at 5 uM after 48 hrs by Annexin-V/FITC/PI dual staining based flow cytometry (reference value: 0.19 +/- 1.4%); type: functional, Homo sapiens
HEK293 [26] = assay: Induction of apoptosis in HEK293 cells assessed as late apoptotic cells at 5 uM after 48 hrs by Annexin-V/FITC/PI dual staining based flow cytometry (reference value: 0.82 +/- 0.5%); type: functional, Homo sapiens
HEK293 [27] = assay: Induction of apoptosis in HEK293 cells assessed as shrinkage after 48 hrs by DAPI staining based fluorescence microscopy; type: functional, cell-based; conditions: Homo sapiens
HEK293 [28] = assay: Induction of apoptosis in HEK293 cells assessed as early apoptotic cells at 2.4 uM after 48 hrs by Annexin-V/FITC/PI dual staining based flow cytometry (reference value: 0.19 +/- 1.4%); type: functional, Homo sapiens
HEK293 [29] = assay: Induction of apoptosis in HEK293 cells assessed as late apoptotic cells at 2.4 uM after 48 hrs by Annexin-V/FITC/PI dual staining based flow cytometry (reference value: 0.82 +/- 0.5%); type: functional, Homo sapiens
Bos taurus = species on record: Bos taurus; assay: Binding affinity to calf thymus DNA assessed as DNA intercalation by measuring conformational changes at 100 uM after 2 hrs by CD spectroscopic analysis

O=c1cc(-c2ccc3c(c2)OCO3)oc2ccccc12
Topoisomerase 2-alpha inhibition (active/inactive) [1]: Active
CC50 [2]: 8 µM
CC50 at 48 h [3]: 48 µM

COc1cccc(-c2cnc3ccccn3c2=O)c1
Topoisomerase 2-alpha inhibition (active/inactive) [1]: Active
CC50 [2]: 9 µM
CC50 at 48 h [3]: 46 µM

Cc1ccc(-c2coc3ccccc3c2=O)cc1
Topoisomerase 2-alpha inhibition (active/inactive) [1]: Active
CC50 [2]: 8 µM
CC50 at 48 h [3]: 48 µM

O=c1c(-c2cccc3ccccc23)cnc2ccccn12
Topoisomerase 2-alpha inhibition (active/inactive) [1]: Active
CC50 [2]: 7 µM
CC50 at 48 h [3]: 60 µM

COc1ccc(-c2cc(=O)n3ccccc3n2)cc1
Topoisomerase 2-alpha inhibition (active/inactive) [1]: Active
CC50 [2]: 8 µM
CC50 at 48 h [3]: 60 µM

COc1ccc(-c2cc(=O)c3ccccc3o2)cc1 [4'-METHOXYFLAVONE]
Topoisomerase 2-alpha inhibition (active/inactive) [1]: Active
CC50 [2]: 8.5 µM
CC50 at 48 h [3]: 45 µM

Cc1ccc(-c2cnc3ccccn3c2=O)cc1
pIC50 [4]: 5.52
Topoisomerase 2-alpha inhibition (active/inactive) [1]: Active
inhibition (HEK293 [5]): Dose-dependent effect
CC50 [6]: 2.5 µM
Activity (HEK293 [7]): Dose-dependent effect
CC50 [2]: 3.5 µM
pIC50 [8]: 5.40
pIC50 [9]: 5.60
pIC50 [10]: 5.60
CC50 at 48 h [3]: 44 µM
Activity [3]: Dose-dependent effect
RatioLC50 (HEK293 [11]): 5 - 10
pIC50 [12]: 5.55

O=Cc1ccc(-c2cc(=O)n3ccccc3n2)cc1
pIC50 [4]: 5.52
Topoisomerase 2-alpha inhibition (active/inactive) [1]: Active
inhibition (HEK293 [5]): Dose-dependent effect
CC50 [6]: 2.5 µM
Activity [13]: Active
Activity (HEK293 [7]): Dose-dependent effect
CC50 [2]: 3 µM
pIC50 [8]: 5.60
pIC50 [9]: 5.62
pIC50 [10]: 5.46
CC50 at 48 h [3]: 48 µM
Activity [3]: Dose-dependent effect
RatioLC50 (HEK293 [11]): 5 - 10
pIC50 [12]: 5.60

COc1cc(-c2cc(=O)n3ccccc3n2)cc(OC)c1OC
Topoisomerase 2-alpha inhibition (active/inactive) [1]: Active
Activity [13]: Active
CC50 [2]: 9 µM
CC50 at 48 h [3]: 46 µM

O=c1c(-c2cc(O)cc(O)c2)cnc2ccccn12
pIC50 [4]: 5.82
Topoisomerase 2-alpha inhibition (active/inactive) [1]: Active
inhibition (HEK293 [5]): Dose-dependent effect
CC50 [6]: 2.4 µM
Activity (HEK293 [7]): Dose-dependent effect
CC50 [2]: 2 µM
pIC50 [8]: 5.70
pIC50 [9]: 5.55
pIC50 [10]: 5.52
CC50 at 48 h [3]: 50 µM
Activity [3]: Dose-dependent effect
RatioLC50 (HEK293 [11]): 5 - 10
pIC50 [12]: 5.52

O=c1cc(-c2ccc3c(c2)OCO3)nc2ccccn12
Topoisomerase 2-alpha inhibition (active/inactive) [1]: Active
CC50 [2]: 15.5 µM
CC50 at 48 h [3]: 52 µM

O=c1c(-c2cccc3ccccc23)coc2ccccc12
Topoisomerase 2-alpha inhibition (active/inactive) [1]: Active
CC50 [2]: 12 µM
CC50 at 48 h [3]: 42 µM

O=c1cc(-c2ccc(O)c(O)c2)nc2ccccn12
Topoisomerase 2-alpha inhibition (active/inactive) [1]: Active
CC50 [2]: 13 µM
CC50 at 48 h [3]: 32 µM

COc1ccc(-c2cnc3ccccn3c2=O)cc1
Topoisomerase 2-alpha inhibition (active/inactive) [1]: Active
CC50 [2]: 19 µM
CC50 at 48 h [3]: 38 µM

COc1cc(-c2cc(=O)c3ccccc3o2)cc(OC)c1OC
Topoisomerase 2-alpha inhibition (active/inactive) [1]: Active
CC50 [2]: 12 µM
CC50 at 48 h [3]: 52 µM

O=c1cc(-c2ccc(Cl)cc2)nc2ccccn12
Activity (HEK293 [14]): 0.66%
Activity (HEK293 [15]): Dose-dependent effect
pIC50 [4]: 5.70
Activity (HEK293 [16]): Dose-dependent effect
Activity (HEK293 [17]): 77.6%
Activity (HEK293 [18]): 0.2%
Topoisomerase 2-alpha inhibition (active/inactive) [1]: Active
Activity (HEK293 [19]): 3.41%
inhibition (HEK293 [5]): Dose-dependent effect
CC50 [6]: 2 µM
Activity (HEK293 [20]): Dose-dependent effect
Activity [13]: Active
Activity (HEK293 [7]): Dose-dependent effect
CC50 [2]: 2.4 µM
Activity (HEK293 [21]): 10.83%
Activity (HEK293 [22]): 88.48%
Activity (HEK293 [23]): 0.02%
pIC50 [8]: 5.74
Activity (HEK293 [24]): 87%
Activity (HEK293 [25]): 0.42%
Activity (HEK293 [26]): 18.56%
pIC50 [9]: 5.68
pIC50 [10]: 5.60
Activity (HEK293 [27]): Dose-dependent effect
Activity (HEK293 [28]): 0%
Activity (HEK293 [29]): 12.8%
CC50 at 48 h [3]: 47.5 µM
Activity [3]: Dose-dependent effect
RatioLC50 (HEK293 [11]): 5 - 10
pIC50 [12]: 5.64

O=c1c(-c2cccc(O)c2)cnc2ccccn12
Topoisomerase 2-alpha inhibition (active/inactive) [1]: Active
CC50 [2]: 6 µM
CC50 at 48 h [3]: 52 µM

O=c1c(-c2ccc3c(c2)OCO3)cnc2ccccn12
Topoisomerase 2-alpha inhibition (active/inactive) [1]: Active
CC50 [2]: 15 µM
CC50 at 48 h [3]: 48 µM

COc1cc(-c2coc3ccccc3c2=O)cc(OC)c1OC
Topoisomerase 2-alpha inhibition (active/inactive) [1]: Active
CC50 [2]: 10 µM
CC50 at 48 h [3]: 50 µM

COc1cc([C@@H]2c3cc4c(cc3[C@@H](O[C@@H]3O[C@@H]5CO[C@@H](C)O[C@H]5[C@H](O)[C@H]3O)[C@H]3COC(=O)[C@H]23)OCO4)cc(OC)c1O [ETOPOSIDE]
Topoisomerase 2-alpha inhibition (active/inactive) [1]: Active
CC50 [6]: 20 µM
CC50 [2]: 22 µM
CC50 at 48 h [3]: 55 µM

O=c1c(-c2ccccc2)cnc2c(OCc3ccccc3)cccn12
pIC50 [4]: 5.82
Topoisomerase 2-alpha inhibition (active/inactive) [1]: Active
inhibition (HEK293 [5]): Dose-dependent effect
CC50 [6]: 3.8 µM
Activity (HEK293 [7]): Dose-dependent effect
CC50 [2]: 3 µM
pIC50 [8]: 5.70
pIC50 [9]: 5.70
pIC50 [10]: 5.52
CC50 at 48 h [3]: 60 µM
Activity [3]: Dose-dependent effect
RatioLC50 (HEK293 [11]): 5 - 10
pIC50 [12]: 5.52

CC[n+]1c(-c2ccccc2)c2cc(N)ccc2c2ccc(N)cc21
Activity (Bos taurus): Active

COc1ccc(-c2cc(=O)n3ccccc3n2)cc1OC
Topoisomerase 2-alpha inhibition (active/inactive) [1]: Active
CC50 [2]: 17 µM
CC50 at 48 h [3]: 50 µM

COc1cc(-c2cnc3ccccn3c2=O)cc(OC)c1OC
pIC50 [4]: 5.55
Topoisomerase 2-alpha inhibition (active/inactive) [1]: Active
inhibition (HEK293 [5]): Dose-dependent effect
CC50 [6]: 1.8 µM
Activity (HEK293 [7]): Dose-dependent effect
CC50 [2]: 3 µM
pIC50 [8]: 5.52
pIC50 [9]: 5.68
pIC50 [10]: 5.49
CC50 at 48 h [3]: 40 µM
Activity [3]: Dose-dependent effect
RatioLC50 (HEK293 [11]): 5 - 10
pIC50 [12]: 5.52

O=c1c(-c2ccc(O)c(O)c2)cnc2ccccn12
Topoisomerase 2-alpha inhibition (active/inactive) [1]: Active
CC50 [2]: 9 µM
CC50 at 48 h [3]: 38 µM

COc1ccc(-c2coc3ccccc3c2=O)cc1
CC50 [2]: 12 µM
CC50 at 48 h [3]: 52 µM
